Experimental findings from paper PMC7032066 (Insect biochemistry and molecular biology, 2019) are described below.

Molecules are shown by their SMILES. Starred links: 1 amine or outer side, 2 acyl side, 3 side chain; linkers in the order of their positions; H or OH if unused. Non-standard residues stand in square brackets, D forms with d. Residues, ends and D or L forms follow the SMILES beside them. Mur = C[C@@H](O[C@H]1[C@H](O)[C@@H](CO)OC(O)[C@@H]1N[*:1])C(=O)[*:2]; d(isoGln) = NC(=O)[C@@H](CCC(=O)[*:2])N[*:1]

The target in the assay is T1, M. sexta PGRP1 (Manduca sexta, UniProt Q86RS6).
T1 sequence (Q86RS6 20-191): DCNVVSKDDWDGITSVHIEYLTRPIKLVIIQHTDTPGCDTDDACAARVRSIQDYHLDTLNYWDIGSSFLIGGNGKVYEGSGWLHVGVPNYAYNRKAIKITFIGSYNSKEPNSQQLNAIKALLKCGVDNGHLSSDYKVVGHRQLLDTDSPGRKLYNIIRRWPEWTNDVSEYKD
Put plainly: SPR. It is filed as binding. Particulars: HBS-EP pH 7.4 (10 mM HEPES, 150 mM NaCl, 3 mM EDTA, 0.005% polysorbate 20), 25°C.

For `CC(=O)N[C@H]1C(O)O[C@H](CO)[C@@H](O)[C@@H]1O[C@H](C)C(=O)N[C@@H](C)C(=O)N[C@H](CCC(=O)N[C@@H](CCCCN)C(=O)N[C@H](C)C(=O)N[C@H](C)C(N)=O)C(N)=O` (stereo partly shown) [Lys-MPP] (Ac-[Mur]A[d(isoGln)]K[dA][dA]-NH2), the Kd (commonly the equilibrium constant for the complex coming apart) is 45.6 µM. This counts as double-digit micromolar.
